# In ChEMBL document CHEMBL4257461, “Schizophrenia: synthetic strategies and recent advances in drug design” (Medchemcomm, 2018):
# Legend:
# [1] = Terminal half life in po dosed human; conditions: in vivo
# [2] = Drug excretion in po dosed human; conditions: in vivo
# [3] = Drug absorption in po dosed human; assay type: ADME, organism-based; conditions: in vivo, read-out: Drug absorption
# [4] = Oral bioavailability in human; assay type: ADME, organism-based; conditions: in vivo
# [5] = Tmax in human at 9.75 mg, im administered as single dose; assay type: ADME, organism-based; conditions: in vivo
# [6] = Half life in po dosed human plasma; assay type: ADME, organism-based
# [7] = Half life in iv dosed human plasma; assay type: ADME, organism-based
# [8] = Half life in im dosed human plasma; assay type: ADME, organism-based
smiles,measurement,setting,value
OCCOCCN1CCN(C2=Nc3ccccc3Sc3ccccc32)CC1 [QUETIAPINE],half-life,[1],6 h
same,dose excreted,[2],< 1%
CN1CCN(C2=Nc3cc(Cl)ccc3Nc3ccccc32)CC1 [CLOZAPINE],Fa,[3],90 to 95%
same,bioavailability,[4],50 to 60%
O=C1CCc2ccc(OCCCCN3CCN(c4cccc(Cl)c4Cl)CC3)cc2N1 [ARIPIPRAZOLE],Tmax,[5],3 h
O=C(CCCN1CCC(O)(c2ccc(Cl)cc2)CC1)c1ccc(F)cc1 [HALOPERIDOL],half-life,[6],24 h
same,half-life,[7],14 h
same,half-life,[8],21 h
O=C1[C@@H]2[C@H]3CC[C@H](C3)[C@@H]2C(=O)N1C[C@@H]1CCCC[C@H]1CN1CCN(c2nsc3ccccc23)CC1 [LURASIDONE],Fa,[3],9 to 19%
